Test results: paper PMC8154566, “Scaffold-Hopping Strategy on a Series of Proteasome Inhibitors Led to a Preclinical Candidate for the Treatment of Visceral Leishmaniasis” (Journal of Medicinal Chemistry, 2021)
Converted amounts (≈) assume the structure as drawn. Like-named read-outs stand apart in the source and are kept apart here.

What was measured:
[1] = tested on: L. donovani amastigotes; experiment: INMAC assay: intramacrophage L. donovani in differentiated THP-1 cells; assay type: cell-based, Leishmania donovani; settings: for loss of potency: INMAC, relative to compound 4; for IC50 / EC50: Leishmania donovani; for IC50: THP-1, read-out: LdInMac pIC50 (converted); for EC50: THP-1
Protocol: (§1) Intramacrophage L. donovani Assay. This assay was conducted as previously described, except for […]

[2] = tested on: THP-1 cells; experiment: THP-1 host cell read-out of the INMAC assay; assay type: cell-based; settings: Homo sapiens
Protocol: as §1

[3] = Kinetic aqueous solubility by CLND; assay type: physicochemical
Protocol: We had successfully used these criteria in the hit to lead stage to identify compounds for in vivo proof-of-concept studies in another program, which subsequently led to the identification of preclinical candidate DDD853651/GSK3186899 active against CRK12.[7] […] A pharmacokinetic (PK) study was thus performed, dosed at 10 mg/kg po and 3 mg/kg iv. […] With the limited knowledge of the PK/PD drivers for the treatment of VL, we considered this to be a suitable profile for the progression of 4 into a previously reported mouse efficacy model of VL,[6],[7],[17],[18] where it was dosed twice daily at 50 mg/kg ip in order to further maximize exposure and give the best chance of achieving proof-of-concept.
(§2) Intramacrophage L. donovani Assay. This assay was conducted as previously described, except for compound exposure time, which was 96 h instead of 72 h.4
(§3) Intrinsic Clearance. This assay was conducted as previously described.5 Aqueous Solubility. This assay was conducted as previously described.6
(§4) FaSSIF Solublity. This assay was conducted as previously described.5,7
(§5) In vivo Mouse Efficacy Studies. In vivo studies were carried out as previously described, with minor modifications.7 Briefly: Control drug used was Miltefosine (30 mg/kg orally, twice daily for 5 days), vehicle used was 10% (v/v) dimethyl sulfoxide (DMSO), 40% polyethylene glycol 400, and 50% deionized water (10 Ml/kg orally, twice daily for 5 days) and mice were treated with test compound intraperitoneally (50 mg/kg twice daily for 5 days). 5
(§6) All regulated procedures on living animals were carried out under the authority of a project license issued by the Home Office under the Animals (Scientific Procedures) Act 1986, as amended in 2012 (and in compliance with EU Directive EU/2010/63). Infected animals had access to food and water ad libitum and were housed under a 12 hour light/dark photoperiod. Animals used in these experiments were female NMRI and Balb/c mice (Harlan, UK).
(§7) Test compound DDD01008714 was dosed orally (P.O.) at 10 mg free base/kg (dose volume 10 mL/kg; dose vehicle: 10% (vol/vol) dimethyl sulfoxide (DMSO), 40% polyethylene glycol 400 (PEG400) and 50% deionized water) to female NMRI mice (n = 3) or intravenously (I.V.) at 3 mg free base/kg (dose volume 5 mL/kg; dose vehicle: 10% (vol/vol) dimethyl sulfoxide (DMSO) and 90% Saline) to female Balb/c mice (n = 3). Blood samples (10 μL) where taken from the tail vein of […]

[4] = FaSSIF (fasted state simulated intestinal fluid) solubility; assay type: physicochemical
Protocol: as §2, §3, §4, §5, §6, §7

[5] = Mouse liver microsomal intrinsic clearance; assay type: in vitro ADME; settings: for Mouse CLi: mouse liver microsomes; for Cli (mouse, ml/min/g): supplementary csv
Protocol: as §2, §3, §4, §5, §6, §7

[6] = Table 2, at least three replicates, SD ≤0.4, read-out: INMAC (pEC50) (converted)
[7] = THP-1, Table 2, read-out: THP-1 (pEC50) (converted)
[8] = THP-1, supplementary csv, read-out: THP1 pIC50 (converted)
[9] = Table 2, kinetic, CLND, read-out: Aq. solubility
[10] = supplementary csv, read-out: Aqueous Solubility
[11] = Table 5, at least three replicates, SD ≤0.4, read-out: INMAC pEC50 (converted)
[12] = THP-1, Table 5, read-out: THP-1 pEC50 (converted)
[13] = Table 5, kinetic, CLND, read-out: Aq. solubility
[14] = THP-1, read-out: THP1 pIC50 (converted)
[15] = Table 6, at least three replicates, SD ≤0.4, read-out: INMAC pEC50 (converted)
[16] = THP-1, Table 6, read-out: THP-1 pEC50 (converted)
[17] = Table 6, kinetic, CLND, read-out: Aq. solubility

Structure (SMILES) | IC50 [2, 8] | solubility ([4]; supplementary csv) | Cli (mouse, ml/min/g) [5] | solubility [3, 10] | EC50 [1, 11] | EC50 [2, 12] | solubility [3, 13] | solubility at 4 h ([4]; pH 6.5, Table 5) | Mouse CLi ([5]; Table 5) | EC50 [1, 15] | EC50 [2, 16] | solubility [3, 17] | solubility at 4 h ([4]; pH 6.5, Table 6) | Mouse CLi ([5]; Table 6) | other results
O=C(Nc1nccc(-c2cn3cc(N4CCOCC4)cnc3n2)n1)N1CCCC1 [Compound 12, N-(4-(6-Morpholinoimidazo[1,2-a]pyrimidin-2-yl)pyrimidin-2-yl)pyrrolidine-1-carboxamide] | > 50.1 µM | > 1000 µM | <0.5 mL/min/g | – | – | – | – | – | – | – | – | – | – | – | loss of potency [1]: > 10 fold; IC50 [1]: > 50.1 µM; EC50 [1, 6]: > 50.1 µM; EC50 [2, 7]: > 50.1 µM; solubility [3, 9]: ≥ 470 µM; Mouse CLi ([5]; Table 2): <0.5 mL/min/g
O=C(Nc1cnnc(-c2cn3cc(N4CCOCC4)cnc3n2)c1)N1CCCC1 [Compound 13, N-(6-(6-Morpholinoimidazo[1,2-a]pyrimidin-2-yl)pyridazin-4-yl)pyrrolidine-1-carboxamide] | > 50.1 µM | 290 µM (≈ 114 µg/mL) | <0.5 mL/min/g | 360 µM (≈ 142 µg/mL) | – | – | – | – | – | – | – | – | – | – | loss of potency [1]: > 10 fold; IC50 [1]: > 50.1 µM; EC50 [1, 6]: > 50.1 µM; EC50 [2, 7]: > 50.1 µM; solubility [3, 9]: 355 µM (≈ 140 µg/mL); solubility ([4]; Table 2): > 100 µM; solubility at 4 h ([4]; pH 6.5, Table 2): 286 µM (≈ 113 µg/mL); Mouse CLi ([5]; Table 2): <0.5 mL/min/g
O=C(Nc1ccc(F)c(-c2cn3ncc(N4CCOCC4)cc3n2)c1)N1CCCC1 [Compound 15, N-[4-Fluoro-3-(7-morpholinoimidazo[1,2-b]pyridazin-2-yl)phenyl]pyrrolidine-1-carboxamide] | > 50.1 µM | – | 2 mL/min/g | – | > 50.1 µM | > 50.1 µM | 58 µM (≈ 23.8 µg/mL) | 22 µM (≈ 9.03 µg/mL) | 2.0 mL/min/g | – | – | – | – | – | IC50 [1]: > 50.1 µM; INMAC pEC50 ([1]; Table 5, at least three replicates, SD ≤0.4): inactive
O=C(Nc1ccc(F)c(-c2cc3cc(N4CCOCC4)cnc3o2)c1)N1CCCC1 [Compound 20, N-(4-Fluoro-3-(5-morpholinofuro[2,3-b]pyridin-2-yl)phenyl)pyrrolidine-1-carboxamide] | > 50.1 µM | – | 4 mL/min/g | – | 0.0501 µM | > 50.1 µM | 25 µM (≈ 10.3 µg/mL) | 7 µM (≈ 2.87 µg/mL) | 4.0 mL/min/g | – | – | – | – | – | –
O=C(Nc1ccc(F)c(-c2cc3nc(N4CCOCC4)cnc3o2)c1)N1CCCC1 [Compound 21, N-[4-Fluoro-3-(2-morpholinofuro[2,3-b]pyrazin-6-yl)phenyl]pyrrolidine-1-carboxamide] | > 50.1 µM | – | 2.8 mL/min/g | – | 0.158 µM | > 50.1 µM | 70 µM (≈ 28.8 µg/mL) | 15 µM (≈ 6.17 µg/mL) | 2.8 mL/min/g | – | – | – | – | – | –
O=C(Nc1ccc(F)c(-c2cn3nc(N4CCOCC4)cnc3n2)c1)N1CCCC1 [Compound 23, N-(4-Fluoro-3-(2-morpholinoimidazo[1,2-b][1,2,4]triazin-6-yl)phenyl)pyrrolidine-1-carboxamide] | – | 140 µM (≈ 57.6 µg/mL) | 0.9 mL/min/g | 130 µM (≈ 53.5 µg/mL) | 0.398 µM | > 50.1 µM | 126 µM (≈ 51.8 µg/mL) | – | 0.9 mL/min/g | – | – | – | – | – | IC50 [2, 14]: > 50.1 µM
O=C(Nc1ccc(F)c(-c2nc3ncc(N4CCOCC4)cn3n2)c1)N1CCCC1 [Compound 25, N-(4-Fluoro-3-(6-morpholino-[1,2,4]triazolo[1,5-a]pyrimidin-2-yl)phenyl)pyrrolidine-1-carboxamide] | – | 73 µM (≈ 30 µg/mL) | 0.5 mL/min/g | 400 µM (≈ 165 µg/mL) | 0.631 µM | > 50.1 µM | 354 µM (≈ 146 µg/mL) | 74 µM (≈ 30.4 µg/mL) | <0.5 mL/min/g | – | – | – | – | – | IC50 [2, 14]: > 50.1 µM
O=C(Nc1ccc(F)c(-c2cc3cc(N4CCOCC4)cnn3n2)c1)N1CCCC1 [Compound 26, N-(4-Fluoro-3-(5-morpholinopyrazolo[1,5-b]pyridazin-2-yl)phenyl)pyrrolidine-1-carboxamide] | > 50.1 µM | – | 1.7 mL/min/g | – | 0.158 µM | > 50.1 µM | 51 µM (≈ 20.9 µg/mL) | 12 µM (≈ 4.93 µg/mL) | 1.7 mL/min/g | – | – | – | – | – | –
O=C(Nc1ccc(F)c(-c2ccn3c(-c4ccccc4)cnc3n2)c1)N1CCCC1 [Compound 28, N-(4-Fluoro-3-(3-phenylimidazo[1,2-a]pyrimidin-7-yl)phenyl)pyrrolidine-1-carboxamide] | 50.1 µM | 8 µM (≈ 3.21 µg/mL) | 2.5 mL/min/g | – | – | – | – | – | – | 0.251 µM | 50.1 µM | 39 µM (≈ 15.7 µg/mL) | 7 µM (≈ 2.81 µg/mL) | 2.5 mL/min/g | –
O=C(Nc1ccc(F)c(-c2ccn3c(-c4ccccn4)cnc3n2)c1)N1CCCC1 [Compound 29, N-(4-Fluoro-3-(3-(pyridin-2-yl)imidazo[1,2-a]pyrimidin-7-yl)phenyl)pyrrolidine-1-carboxamide] | > 50.1 µM | 270 µM (≈ 109 µg/mL) | 1.8 mL/min/g | – | – | – | – | – | – | 0.398 µM | > 50.1 µM | 74 µM (≈ 29.8 µg/mL) | 273 µM (≈ 110 µg/mL) | 1.8 mL/min/g | –
CC(C)c1cnc2nc(-c3cc(NC(=O)N4CCCC4)ccc3F)ccn12 [Compound 30, N-(4-Fluoro-3-(3-isopropylimidazo[1,2-a]pyrimidin-7-yl)phenyl)pyrrolidine-1-carboxamide] | 50.1 µM | 70 µM (≈ 25.7 µg/mL) | 4.6 mL/min/g | 240 µM (≈ 88.2 µg/mL) | – | – | – | – | – | 1.26 µM | 50.1 µM | 231 µM (≈ 84.9 µg/mL) | 71 µM (≈ 26.1 µg/mL) | 4.6 mL/min/g | –
CC(C)Cc1cnc2nc(-c3cc(NC(=O)N4CCCC4)ccc3F)ccn12 [Compound 31, N-(4-Fluoro-3-(3-isobutylimidazo[1,2-a]pyrimidin-7-yl)phenyl)pyrrolidine-1-carboxamide] | 63.1 µM | 180 µM (≈ 68.7 µg/mL) | 15 mL/min/g | 180 µM (≈ 68.7 µg/mL) | – | – | – | – | – | 0.501 µM | 63.1 µM | 182 µM (≈ 69.4 µg/mL) | 178 µM (≈ 67.9 µg/mL) | 15 mL/min/g | –
O=C(Nc1ccc(F)c(-c2ccn3c(CN4CCOCC4)cnc3n2)c1)N1CCCC1 [Compound 32, N-(4-Fluoro-3-(3-(morpholinomethyl)imidazo[1,2-a]pyrimidin-7-yl)phenyl)pyrrolidine-1-carboxamide] | 63.1 µM | 730 µM (≈ 310 µg/mL) | 16 mL/min/g | – | – | – | – | – | – | 10 µM | 63.1 µM | ≥ 348 µM | 728 µM (≈ 309 µg/mL) | 16 mL/min/g | –
O=C(Nc1ccc(F)c(-c2ccn3c(N4CCCCC4)cnc3n2)c1)N1CCCC1 [Compound 34, N-(4-Fluoro-3-(3-(piperidin-1-yl)imidazo[1,2-a]pyrimidin-7-yl)phenyl)pyrrolidine-1-carboxamide] | 50.1 µM | – | 8.4 mL/min/g | 360 µM (≈ 147 µg/mL) | – | – | – | – | – | 0.501 µM | 50.1 µM | 358 µM (≈ 146 µg/mL) | 32 µM (≈ 13.1 µg/mL) | 8.4 mL/min/g | –
O=C(Nc1ccc(F)c(-c2ccn3c(N4CCNCC4)cnc3n2)c1)N1CCCC1 [Compound 35, N-(4-Fluoro-3-(3-(piperazin-1-yl)imidazo[1,2-a]pyrimidin-7-yl)phenyl)pyrrolidine-1-carboxamide] | > 50.1 µM | – | <0.5 mL/min/g | ≥ 330 µM | – | – | – | – | – | > 50.1 µM | > 50.1 µM | ≥ 333 µM | 5 µM (≈ 2.05 µg/mL) | <0.5 mL/min/g | IC50 [1]: > 50.1 µM
